From paper PMC8398714, “Synthesis and Evaluation of Biological Activities of Bis(spiropyrazolone)cyclopropanes: A Potential Application against Leishmaniasis” (Molecules, 2021)
Where two headings read alike, the source gives them in different places.

How the values were obtained:
[1] = test system: promastigotes of Leishmania mexicana; test: Leishmanicidal activity, MTT assay on promastigotes; assay type: cell-based; settings: for SI (Selectivity Index) = Citotoxic activity/Leishmanicidal activity: CC50 RAW / IC50 L. mexicana; for IC50: Leishmania mexicana
Description: The leishmanicidal activity of all compounds was evaluated by measuring promastigotes’ mitochondrial activity using MTT colorimetric assay as described previously. In this study, promastigotes from Leishmania mexicana were used. The species were confirmed by amplifying and sequencing cytochrome b gene. Promastigotes were cultured at 25 °C in Schneider’s Drosophila Medium (Gibco, Invitrogen, Carlsbad, CA, USA) supplemented with 10% fetal bovine serum (Eurobio, Les Ulis, France). The medium was renewed every third day. Parasite density was determined by counting the cells using a Neubauer chamber.
Into each well of a 96-well plate were dispensed 1 × 10^6 parasites/well. A stock solution of the compounds was prepared in DMSO (Sigma Aldrich, Saint Louis, MO, USA), and serial dilutions were added to the parasite suspension, leading to concentrations ranging from 100 to 0.001 µM, keeping the solvent concentration at 0.5%. The final volume was 200 µL for each well and triplicate conditions were carried out. Amphotericin B (Gibco) treatment (1 µM) untreated parasites and DMSO 0.5% were used as positive and negative controls, respectively. After exposure to the compounds for 48 h in culture medium, 20 µL of a solution of 5 mg/mL MTT dissolved in PBS were added to each well. The plate was incubated at 25 °C for 2 h in darkness. The plate was then centrifuged at 4400 rpm for 10 min and the culture medium was then aspirated; 50 µL of DMSO were added into each well to solubilize the formazan crystals and the plate was shaken for 5 min and then it was measured by recording changes in absorbance at 570 nm using a microplate reader Cytation 5 (BioTek) spectrophotometer. A reference wavelength of 630 nm was used as background subtraction. Optical densities were analyzed because the quantity of formazan is directly proportional to the number of viable parasites. Data were analyzed with the statistical software GraphPad Prism 7.02 (GraphPad Software, Corp.).

[2] = test system: PC-3; test: MTS cell viability assay on PC-3 cells; assay type: cell-based; settings: Homo sapiens, 48 h; for inhibition at 100 µM: Dox 1 µM, mean ± SEM, NA = no activity, read-out: Percentage (%) of inhibition, PC-3
Description: (§1) Five tumor human cancer cell lines—cerebral astrocytoma (D-384), grade IV prostatic adenocarcinoma (PC-3), mammary adenocarcinoma (MCF-7), human colon carcinoma (RKO) and lung carcinoma (A-549)—along with one immortalized hamster cell line (CHO K-1) were used. The cells PC-3, MCF-7 and RKO were cultured in RPMI-1640, D-384 on DMEM and CHO K-1 on HAM F-12 medium supplemented with 10% fetal bovine serum (FBS, Invitrogen, Karlsruhe, Germany), 1% antibiotic-antimitotic solution (100 units/mL penicillin G, 100 µg/mL streptomycin, and 0.25 µg/mL amphotericin B, Gibco, Grand Island, NY, USA), and 1% L-glutamine (2 mM, Gibco). The cells were incubated at 37 °C in a 5% CO2 atmosphere. The viable cells were counted using the trypan blue exclusion method in a hemocytometer.
(§2) The MTS (5-[3-(carboxymethoxy)phenyl]-3-(4,5-dimethyl-2-thiazolyl)-2-(4-sulfo- phenyl)-2H-tetrazolium inner salt) cell viability assay was used to assess the inhibitory effects of the extracts on the survival of human cancer cell lines. A total of 3–5 × 10^3 cells/well were seeded into 96-well plates and were allowed to adhere for 24 h. […] Each concentration/assay was performed three times. Dimethyl sulfoxide (DMSO) was used as a negative control at a final concentration of 0.1% v/v, and 1 µM Doxorubicin was used as a positive control. The cells were incubated with the treatments for 48 h, after which 20 µL MTS (5 mg/mL, Aqueous One Solution Reagent, Gibco) was added and further incubated for 4 h at 37 °C. The absorbance was measured at 570 nm. The data obtained with cells treated with DMSO were defined to represent 100% viability.

[3] = test system: CHO-K1; test: MTS cell viability assay on immortalized CHO-K1 cells; assay type: cell-based, hamster; settings: 48 h, Dox 1 µM, mean ± SEM, NA = no activity, read-out: Percentage (%) of inhibition, CHO-K1
Description: as §1, §2

[4] = test system: Leishmania mexicana cells; test: Comet assay of Leishmania mexicana cells; assay type: cell-based; parameters: Comet tail length, mean (vary) / Comet tail length, median (Q50): unit not given here; settings: L. mexicana, 24 h at MIC; MMS 0.011%; Kruskal-Wallis $means
Description: We quantified DNA breaks by a comet assay to determine if these compounds are genotoxic. Here, L. mexicana cells were exposed for 24 h to MIC concentrations previously determined (see Materials and Methods Section) for each compound. Figure 1 represents the measurements obtained for tail length. All compounds generated DNA breaks expect 4s. […] Samples with DMSO and MMS (0.011%) were included as controls. Some representative pictures are shown at Figure S4. The effect of 4p could not be determined because the cells appear to be very damaged. The data was subjected via a Kruskal–Wallis one-way ANOVA (Statistical Analyses S2). […] These observations support a mechanism of action through the generation of DNA damage.
For leishmania, a method previously described for yeast was adapted. Briefly, after incubating the cells in presence of the compounds for 24 h, cells were collected and washed with buffer S (1 M sorbitol, 25 mM KH2PO4 in ultrapure water and adjust to pH 6.5 with NaOH). The pellet was resuspended in 400 µL of 1.5% LMA and 40 µL was spread (second layer) onto previously agarose-coated slides (first layer).
Slides were immersed in cold lysis buffer (30 mM NaOH, 1 M NaCl, 0.05 % (w/v) lauroylsarcosine, 50 mM EDTA, and 10 mM Tris–HCl, pH 10) for 25 min and then in cold electrophoresis alkaline buffer (30 mM NaOH, 10 mM EDTA, and 10 mM Tris–HCl, pH 10). They were then subjected to electrophoresis at 26V and 300 mA. Slides were immersed in neutralization buffer (10 mM Tris–HCl, pH 7.4; prepared in advance and stored at 4 °C) for 10 min at room temperature. The cells were then treated with proteinase K (20 min, 37 °C in humid chamber), followed by a new neutralization step. To dehydrate the slides, they were immersed in EtOH 90% and EtOH absolute for 10 min each. Finally, the slides were stained with Sybr Gold 1X.
The DNA migration was analyzed using a LEICA microscope with fluorescence (40×) by scoring 100 cells per slide in duplicate. The tail moment parameter was then analyzed by the Comet Score software.

[5] = read-out: IC50 original values, x.1 (Mean)
[6] = L. mexicana promastigotes, 48 h, MTT, read-out: Leishmanicidal Activity IC50

Structure (SMILES)	SI (Selectivity Index) = Citotoxic activity/Leishmanicidal activity [1]	IC50 [1, 5]	IC50 [1, 6]	inhibition at 100 µM [2]	IC50 ([2]; 15-150 µM, mean ± SEM of triplicates)	inhibition at 100 µM [3]	Comet tail length, mean (vary) [4]	Comet tail length, median (Q50) [4]
CC1=NN(c2ccccc2)C(=O)[C@@]12C(c1cccc([N+](=O)[O-])c1)[C@@]21C(=O)N(c2ccccc2)N=C1C (relative stereo) [4d, (5R*,6R*)-11-(3-Nitrophenyl)-4,10-dimethyl-2,8-diphenyl-2,3,8,9-tetraazadispiro[4.0.4.1]undeca-3,9-diene-1,7-dione]	26.0	148 nM	150 ± 20 nM	46.1 ± 1.91%	90900 ± 2560 nM	4.4 ± 0.72%	75120000	83500000
COc1ccccc1C1[C@@]2(C(=O)N(c3ccccc3)N=C2C)[C@]12C(=O)N(c1ccccc1)N=C2C (relative stereo) [4f, (5R*,6R*)-11-(2-Methoxyphenyl)-4,10-dimethyl-2,8-diphenyl-2,3,8,9-tetraazadispiro[4.0.4.1]undeca-3,9-diene-1,7-dione]	5.7	2230 nM	2230 ± 70 nM	28.3 ± 2.56%	–	2.79 ± 1.49%	75100000	80500000
